These results are taken from patent publication US8273743B2, “Quinoxaline inhibitors of the hedgehog signalling” (Curis, Inc., priority 2004, dated 2012).

Some results are limits rather than exact numbers.

This test relates to hedgehog pathway signaling (10T1/2-GliLuc [s12] or HEPM-GliLuc [MZ24] Gli reporter cell lines). Briefly: Hedgehog signalling inhibition assay (Gli-luciferase reporter gene assay). To be noted: average IC50; either mouse [s12] or human [MZ24] Gli reporter cell lines; with Sonic hedgehog-octyl conjugate, 24 hrs. It counts as cell-based. Here is the method: Mouse Reporter Cell lines—10T1/2-GliLuc [s12] cells (derived from cell line C3H10T1/2 ATCC #CCL-226); Mouse Embryonic Fibroblasts); Growth Medium: Dulbecco's modified Eagles' Medium (DMEM) supplemented with 10% Fetal Bovine Serum (FBS), 10 units/mL penicillin, 100 ug/mL streptomycin, 2 mM glutamine, and 10 mM HEPES.
Human Reporter Cell lines—HEPM-GliLuc [MZ24]—cells (derived from HEPM, Human Embryonic Palatal Mesenchyme ATCC #CRL-1486); Growth Medium: Minimum Essential Medium (MEM; with Earle's salts) supplemented with 10-20% Fetal Bovine Serium (FBS), 10 units/mL penicillin, 100 ug/mL streptomycin, 2 mM glutamine, and 10 mM HEPES pH 7.2.
Sonic hedgehog—recombinant human SHh N-terminal octylated conjugate.
Microtiter Plates (MTPs)—For the Luciferase assay cells are plated in 96-well MTPs (White, Flat-bottom, Clear-View).
Luciferase-Assay Medium—DMEM supplemented with 0.5% FBS, 10 units/mL penicillin, 100 ug/mL streptomycin, 2 mM glutamine, and 10 mM HEPES pH 7.2.
PBS/Ca/Mg Mix—Phosphate Buffered Saline (PBS) supplemented with 0.5 mM CaCl2 and 1 mM MgCl2.
S12 and MZ24 cells genetically modified to contain a luciferase reporter gene driven by the hedgehog-responsive Gli promoter were maintained on tissue culture dishes in Growth Medium at 37° C. and 5% CO2. Cell cultures were passaged at sub-confluency at every 3-4 days. (1:20 to 1:40 for s12; 1:3 to 1:10 for MZ24). Cells were harvested and diluted in Growth Medium such that they could be plated in a microtitre plate at 10,000-20,000 cells (s12), or 20,000-30,000 cells (MZ24), per 100 ul, per well. Cells were further incubated for ˜24-48 hours at 37° C. and 5% CO2.
After ˜24-48 hour incubation the Growth Medium in the microtitre plates was replaced by Luciferase-Assay Medium (100 ul per well), with and without Sonic hedgehog-octyl conjugate, at 0.1-0.3 ug/ml (S12) or 0.5-1.0 ug/ml (MZ24), and test compounds. Cells were then further incubated for and additional 24 hrs.
Microtitre plates were then subjected to the luciferase reporter gene assay kit (LucLite™), with modifications to the manufacturer's procedure wherein medium was removed and the substrate was reconstituted with 1:1 PBS/Ca/Mg:lysis buffer instead of straight lysis buffer. In brief, the PBS/Ca/Mg was mixed 1:1 with lysis buffer and 10 mL were added to each substrate vial (of the 1000-assay kit). Then the assay media from the microtitre plate was discarded, and 100 ul of this substrate mix was added to each well. Plates were incubated at room temperature for 20-30 minutes and then the Relative Light Units (RLUS) representing the relative expression level of the luciferase reporter gene were determined with a Topcount reader (Packard) or an Analyst reader (Molecular Devices).
The following table 1 represents the average IC50 values for particular compounds tested according to the procedures above using either mouse [s12] or human [MZ24] Gli reporter cell lines indicating inhibition of hedgehog pathway signaling.
(Reporter assays use an easily measured gene product as a stand-in for the process of interest.)
Usually IC50 stands for the concentration needed to halve the response being measured. A low value points to inhibition by little substance. As to `O=C(Nc1ccc(Cl)c(-c2cnc3ccccc3n2)c1)c1cccnc1F` [compound 6], the IC50 is below 1 µM.
`Cc1ccsc1C(=O)Nc1ccc(Cl)c(-c2cnc3ccccc3n2)c1` [compound 7] returned an IC50 below 1 µM.
Take `O=C(Nc1ccc(Cl)c(-c2cnc3ccccc3n2)c1)c1ccc(Cl)nc1Cl` [compound 15]: the IC50 was below 1 µM.
With `CS(=O)(=O)c1ccc(C(=O)Nc2ccc(Cl)c(-c3cnc4ccccc4n3)c2)cc1` [compound 18] the figure was below 1 µM; with `O=C(Nc1ccc(Cl)c(-c2cnc3ccccc3n2)c1)c1ccc2cc[nH]c2c1` [compound 19], below 1 µM; with `CS(=O)(=O)c1cccc(C(=O)Nc2ccc(Cl)c(-c3cnc4ccccc4n3)c2)c1` [compound 24], below 1 µM.
On to `O=C(Nc1ccc(Cl)c(-c2cnc3ccccc3n2)c1)C1CC1` [compound 27], for which the IC50 is below 1 µM.
With `Cc1cc(C(=O)Nc2ccc(Cl)c(-c3cnc4ccccc4n3)c2)c(C(F)(F)F)o1` [compound 31] the figure was below 1 µM; with `O=C(Nc1ccc(Cl)c(-c2cnc3ccccc3n2)c1)c1cccc(Cl)c1` [compound 33], below 1 µM.
The value for `O=C(Nc1ccc(Cl)c(-c2cnc3ccccc3n2)c1)c1ccc(Cl)cc1` [compound 34] was below 1 µM.
With `O=C(Nc1ccc(Cl)c(-c2cnc3ccccc3n2)c1)c1cccnc1` [compound 35] the figure was below 1 µM.
Compound `O=C(Nc1ccc(Cl)c(-c2cnc3ccccc3n2)c1)c1ccc(Cl)nc1` [compound 36] had an IC50 below 1 µM.
`O=C(Nc1ccc(Cl)c(-c2cnc3ccccc3n2)c1)c1cccnc1Cl` [compound 37] returned an IC50 below 1 µM.
With `O=C(Nc1ccc(Cl)c(-c2cnc3ccccc3n2)c1)c1cccs1` [compound 38] the figure was below 1 µM; with `Cc1nc(C(F)(F)F)ccc1C(=O)Nc1ccc(Cl)c(-c2cnc3c(F)cc(F)cc3n2)c1` [compound 39], below 1 µM; with `Cc1nc(C(F)(F)F)ccc1C(=O)Nc1ccc(Cl)c(-c2cnc3c(F)c(F)ccc3n2)c1` [compound 40], below 1 µM.
The value for `Cc1nc(C(F)(F)F)ccc1C(=O)Nc1ccc(Cl)c(-c2cnc3cc(F)c(F)cc3n2)c1` [compound 41] was below 1 µM; that for `Cc1cc2ncc(-c3cc(NC(=O)c4ccc(C(F)(F)F)nc4C)ccc3Cl)nc2cc1C` [compound 42] was below 1 µM.
The value for `Cc1nc(C(F)(F)F)ccc1C(=O)Nc1ccc(Cl)c(-c2cnc3cc(F)ccc3n2)c1` [compound 43] was below 1 µM.
`O=C(Nc1ccc(Cl)c(-c2cnc3ccccc3n2)c1)c1cccc2c1OCCO2` [compound 44] registered an IC50 below 1 µM.
The value for `Cc1ccc2ncc(-c3cc(NC(=O)c4ccc(C(F)(F)F)nc4C)ccc3Cl)nc2c1C` [compound 45] was below 1 µM.
With `COc1cc(OC)cc(C(=O)Nc2ccc(Cl)c(-c3cnc4c(C)cccc4n3)c2)c1` [compound 46] the figure was below 1 µM.
The value for `Cc1nc(C(F)(F)F)ccc1C(=O)Nc1ccc(Cl)c(-c2cnc3c(C)cccc3n2)c1` [compound 47] was below 1 µM; that for `Cc1cc(C)c2nc(-c3cc(NC(=O)c4ccc(C(F)(F)F)nc4C)ccc3Cl)cnc2c1` [compound 48] was below 1 µM; that for `COc1cc(OC)cc(C(=O)Nc2ccc(Cl)c(-c3cnc4ccc(C)c(C)c4n3)c2)c1` [compound 54] was below 1 µM.
As for `Cc1nc(C(F)(F)F)ccc1C(=O)Nc1ccc(Cl)c(-c2cnc3cccnc3n2)c1` [compound 55], the IC50 was below 1 µM.
The value for `CC(C)CC(=O)Nc1ccc(Cl)c(-c2cnc3ccccc3n2)c1` [compound 56] was below 1 µM.
